Measured values published in US20250230193A1, “CYCLIC COMPOUND HAVING SELECTIVE KRAS INHIBITORY EFFECT ON HRAS AND NRAS” (CHUGAI SEIYAKU KABUSHIKI KAISHA, priority 2022, published 2025).
*1 amine or outer side, *2 acyl side, *3 side chain or, on linkers, in order; H or OH if unused. Where a SMILES comes first, the peptide text is derived from it. Bridges are numbered along the chain shown (N, C = ends). [ ]: non-standard residue; d: D form. The star is where a group is joined. hPhe(3-Cl-4-CF3) = N[C@@H](CCc1ccc(C(F)(F)F)c(Cl)c1)C(=O)O; X37 = O=C([C@H](Cc1ccc(C(F)(F)F)cc1)N(CC1CCC1)[*:1])[*:2]; X40 = CCCN([C@@H](Cc1ccc(OC)cc1)C(=O)[*:2])[*:1]; NMeGly(cPent) = CN[C@H](C(=O)O)C1CCCC1; NMeD = CN[C@@H](CC(=O)O)C(=O)O; NMeL = CN[C@@H](CC(C)C)C(=O)O; Morpholide = C1CN(*)CCO1; NMeA = CN[C@@H](C)C(=O)O; Ac5c = NC1(C(=O)O)CCCC1; Aze = O=C(O)[C@@H]1CCN1; Sar = CNCC(=O)O

What was measured:
[1] = biological target: GDP-bound HRAS wild-type protein (Homo sapiens, UniProt P01112); test: Binding to HRAS by surface plasmon resonance (SPR), Single Cycle Kinetics; settings: for HRAS/KRAS (ratio of KD value with respect to GDP-bound HRAS wild-type protein to KD value with respect to KRAS): class symbols
GDP-bound HRAS wild-type protein, sequence (P01112 whole entry): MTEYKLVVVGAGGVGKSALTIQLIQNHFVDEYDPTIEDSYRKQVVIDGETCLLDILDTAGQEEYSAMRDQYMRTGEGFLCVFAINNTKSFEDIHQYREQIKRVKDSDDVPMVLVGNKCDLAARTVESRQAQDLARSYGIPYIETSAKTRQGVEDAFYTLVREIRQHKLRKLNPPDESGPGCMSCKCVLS

[2] = biological target: GDP-bound NRAS wild-type protein (Homo sapiens, UniProt P01111); test: Binding to NRAS by surface plasmon resonance (SPR), Single Cycle Kinetics; settings: for NRAS/KRAS (ratio of KD value with respect to GDP-bound NRAS wild-type protein to KD value with respect to KRAS): class symbols
GDP-bound NRAS wild-type protein, sequence (P01111 whole entry): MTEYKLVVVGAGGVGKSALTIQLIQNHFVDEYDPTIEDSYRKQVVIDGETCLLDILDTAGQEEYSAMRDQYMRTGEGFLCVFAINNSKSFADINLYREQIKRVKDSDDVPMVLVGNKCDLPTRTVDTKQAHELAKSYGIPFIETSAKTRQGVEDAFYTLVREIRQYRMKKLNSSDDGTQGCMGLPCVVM

[3] = KD ratio, GDP-bound HRAS wild-type vs GDP-bound KRAS wild-type, SPR
[4] = KD ratio, GDP-bound NRAS wild-type vs GDP-bound KRAS wild-type, SPR

CCC[C@H]1C(=O)N[C@@H]([C@@H](C)CC)C(=O)N2CCC[C@H]2C(=O)N(C)[C@H]2C/C=C\CCN(C2=O)[C@@H](Cc2ccc(C(F)F)cc2)C(=O)N(C)CC(=O)N[C@@H](CCc2ccc(Cl)c(Cl)c2)C(=O)N2C[C@H](OCC)C[C@H]2C(=O)NC2(CC(C)(C)C2)C(=O)N(C)[C@@H](C(CC)CC)C(=O)N(C)[C@H](C(=O)N(C)C)CC(=O)N1C [PP2637]
HRAS/KRAS (ratio of KD value with respect to GDP-bound HRAS wild-type protein to KD value with respect to KRAS) [1]: A (a compound having 10 or more and less than 20 is denoted as A) | NRAS/KRAS (ratio of KD value with respect to GDP-bound NRAS wild-type protein to KD value with respect to KRAS) [2]: AA (a compound having 20 or more is denoted as AA)

CC[C@H](C)[C@@H]1NC(=O)[C@H](CC(C)C)N(C)C(=O)C[C@@H](C(=O)N2CCOCC2)N(C)C(=O)[C@H](C2CCCC2)N(C)C(=O)C2(CCCC2)NC(=O)[C@@H]2CCCN2C(=O)[C@H](CCc2ccc(C(F)(F)F)c(Cl)c2)NC(=O)CN(C)C(=O)[C@H](Cc2ccc(C(F)(F)F)cc2)N(CC2CCC2)C(=O)CN(C)C(=O)CN(C)C1=O [PP0123] ([NMeL]I[Sar][Sar][X37][Sar][hPhe(3-Cl-4-CF3)]P[Ac5c][NMeGly(cPent)][NMeD]-Morpholide; lactam N-11)
HRAS/KRAS (ratio of KD for GDP-bound HRAS wild-type to KD for KRAS) ([1]; SPR): C (A compound having a KD ratio of 0.1 or more and less than 3 is denoted as C) | NRAS/KRAS (ratio of KD for GDP-bound NRAS wild-type to KD for KRAS) ([2]; SPR): B (a compound having 3 or more and less than 10 is denoted as B)

CCO[C@@H]1C[C@H]2C(=O)NC3(CCC3)C(=O)N(C)[C@@H](C3CCCC3)C(=O)N(C)[C@H](C(=O)N3CCOCC3)CC(=O)N(C)[C@@H](CC(F)F)C(=O)N[C@@H]([C@@H](C)CC)C(=O)N(C)CC(=O)N(C)[C@H]3CCCCCN(C3=O)[C@@H](Cc3ccc(F)cc3)C(=O)N(C)CC(=O)N[C@@H](CCc3cc(F)c(C(F)(F)F)c(F)c3)C(=O)N2C1 [PP1177]
HRAS/KRAS (ratio of KD value with respect to HRAS to KD value with respect to KRAS) [1, 3]: B (a compound having 3 or more and less than 10 is denoted as B) | NRAS/KRAS (ratio of KD value with respect to NRAS to KD value with respect to KRAS) [2, 4]: B (a compound having 3 or more and less than 10 is denoted as B)

CCCN(C)C(=O)[C@@H]1CC(=O)N(C)[C@@H](C(C)C)C(=O)N[C@@H]([C@@H](C)CC)C(=O)N(C)CC(=O)N(C)[C@H]2C/C=C\CCN(C2=O)[C@@H](Cc2ccc(C(F)(F)F)cc2)C(=O)N(C)CC(=O)N[C@@H](CCc2ccc(C(F)(F)F)c(OC)c2)C(=O)N2C[C@@H](C)C[C@H]2C(=O)NC2(CCC2)C(=O)N(C)[C@@H](C2CCCC2)C(=O)N1C [PP2067]
HRAS/KRAS (ratio of KD value with respect to HRAS to KD value with respect to KRAS) ([1]; SPR, GDP-bound HRAS wild-type vs GDP-bound KRAS wild-type): A (a compound having 10 or more and less than 20 is denoted as A) | NRAS/KRAS (ratio of KD value with respect to NRAS to KD value with respect to KRAS) ([2]; SPR, GDP-bound NRAS wild-type vs GDP-bound KRAS wild-type): AA (a compound having 20 or more is denoted as AA)

CCCN(C)C(=O)[C@@H]1CC(=O)N(C)[C@@H](C2CC2)C(=O)N[C@@H]([C@@H](C)CC)C(=O)N(C)CC(=O)N(C)[C@H]2C/C=C\CCN(C2=O)[C@@H](Cc2ccc(C(F)(F)F)cc2)C(=O)N(C)CC(=O)N[C@@H](CCc2cc(F)c(C(F)(F)F)c(F)c2)C(=O)N2C[C@H](OCC)C[C@H]2C(=O)NC2(CCC2)C(=O)N(C)[C@@H](C2CCCC2)C(=O)N1C [PP1994]
HRAS/KRAS (ratio of KD value for HRAS to KD value for KRAS) [1, 3]: A (a compound having 10 or more and less than 20 is denoted as A) | NRAS/KRAS (ratio of KD value for NRAS to KD value for KRAS) [2, 4]: AA (a compound having 20 or more is denoted as AA)

CCC[C@H]1C(=O)N[C@@H]([C@@H](C)CC)C(=O)N(C)CC(=O)N(C)[C@H]2C/C=C\CCN(C2=O)[C@@H](Cc2ccc(C(F)(F)F)cc2)C(=O)N(C)CC(=O)N[C@@H](CCc2ccc(C(F)(F)F)c(OC)c2)C(=O)N2C[C@H](OCC)C[C@H]2C(=O)NC2(CC(C)(C)C2)C(=O)N(C)[C@@H](CC2CCC2)C(=O)N(C)[C@H](C(=O)N(C)C)CC(=O)N1C [PP2764]
HRAS/KRAS (ratio of KD value with respect to GDP-bound HRAS wild-type protein to KD value with respect to KRAS) [1]: A (a compound having 10 or more and less than 20 is denoted as A) | NRAS/KRAS (ratio of KD value with respect to GDP-bound NRAS wild-type protein to KD value with respect to KRAS) [2]: A (a compound having 10 or more and less than 20 is denoted as A)

CCCN1C(=O)[C@@H]2CCN2C(=O)[C@H](C)N(C)C(=O)[C@H]([C@@H](C)CC)NC(=O)[C@H](CC(C)C)N(C)C(=O)C[C@@H](C(=O)N2CCOCC2)N(C)C(=O)[C@H](C2CCCC2)N(C)C(=O)C2(CCCC2)NC(=O)[C@@H]2CCCN2C(=O)[C@H](CCc2ccc(C(F)(F)F)c(Cl)c2)NC(=O)CN(C)C(=O)[C@@H]1Cc1ccc(OC)cc1 [PP0134] ([NMeL]I[NMeA][Aze][X40][Sar][hPhe(3-Cl-4-CF3)]P[Ac5c][NMeGly(cPent)][NMeD]-Morpholide; lactam N-11)
HRAS/KRAS (ratio of KD for GDP-bound HRAS wild-type to KD for KRAS) ([1]; SPR): B (a compound having 3 or more and less than 10 is denoted as B) | NRAS/KRAS (ratio of KD for GDP-bound NRAS wild-type to KD for KRAS) ([2]; SPR): C (A compound having a KD ratio of 0.1 or more and less than 3 is denoted as C)
